pIC50: −log10 of the molar value. Converted amounts (≈) assume the structure as drawn.
What was measured:
[1] = biological target: T1, Penicillin-binding protein 2B (Streptococcus pneumoniae serotype 4 (strain ATCC BAA-334 / TIGR4), UniProt P0A3M5); assay: Displacement of Biocillin FL from Streptococcus pneumoniae 3413 PBP2B
T1 sequence (P0A3M5 whole entry): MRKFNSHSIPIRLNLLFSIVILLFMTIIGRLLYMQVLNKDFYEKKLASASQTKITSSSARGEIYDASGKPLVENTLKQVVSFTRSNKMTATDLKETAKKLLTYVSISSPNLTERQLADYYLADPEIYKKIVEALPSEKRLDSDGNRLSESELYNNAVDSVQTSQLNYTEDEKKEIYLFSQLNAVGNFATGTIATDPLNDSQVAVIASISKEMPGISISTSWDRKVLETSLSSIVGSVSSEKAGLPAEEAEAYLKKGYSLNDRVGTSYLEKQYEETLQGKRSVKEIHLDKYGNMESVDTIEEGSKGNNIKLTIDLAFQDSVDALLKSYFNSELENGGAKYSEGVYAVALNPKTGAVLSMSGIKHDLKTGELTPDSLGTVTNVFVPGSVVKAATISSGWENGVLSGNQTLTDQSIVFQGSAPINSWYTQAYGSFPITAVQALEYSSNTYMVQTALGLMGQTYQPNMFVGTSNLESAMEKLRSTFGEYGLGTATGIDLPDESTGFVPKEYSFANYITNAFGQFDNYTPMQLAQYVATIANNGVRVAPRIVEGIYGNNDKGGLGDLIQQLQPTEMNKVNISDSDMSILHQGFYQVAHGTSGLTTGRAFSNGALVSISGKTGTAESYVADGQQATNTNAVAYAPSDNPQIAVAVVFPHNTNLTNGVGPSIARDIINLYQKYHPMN

[2] = biological target: T2, Penicillin-binding protein 2x (Streptococcus pneumoniae serotype 4 (strain ATCC BAA-334 / TIGR4), UniProt P14677); assay: Displacement of Biocillin FL from Streptococcus pneumoniae 1077 PBP2X
T2 sequence (P14677 whole entry): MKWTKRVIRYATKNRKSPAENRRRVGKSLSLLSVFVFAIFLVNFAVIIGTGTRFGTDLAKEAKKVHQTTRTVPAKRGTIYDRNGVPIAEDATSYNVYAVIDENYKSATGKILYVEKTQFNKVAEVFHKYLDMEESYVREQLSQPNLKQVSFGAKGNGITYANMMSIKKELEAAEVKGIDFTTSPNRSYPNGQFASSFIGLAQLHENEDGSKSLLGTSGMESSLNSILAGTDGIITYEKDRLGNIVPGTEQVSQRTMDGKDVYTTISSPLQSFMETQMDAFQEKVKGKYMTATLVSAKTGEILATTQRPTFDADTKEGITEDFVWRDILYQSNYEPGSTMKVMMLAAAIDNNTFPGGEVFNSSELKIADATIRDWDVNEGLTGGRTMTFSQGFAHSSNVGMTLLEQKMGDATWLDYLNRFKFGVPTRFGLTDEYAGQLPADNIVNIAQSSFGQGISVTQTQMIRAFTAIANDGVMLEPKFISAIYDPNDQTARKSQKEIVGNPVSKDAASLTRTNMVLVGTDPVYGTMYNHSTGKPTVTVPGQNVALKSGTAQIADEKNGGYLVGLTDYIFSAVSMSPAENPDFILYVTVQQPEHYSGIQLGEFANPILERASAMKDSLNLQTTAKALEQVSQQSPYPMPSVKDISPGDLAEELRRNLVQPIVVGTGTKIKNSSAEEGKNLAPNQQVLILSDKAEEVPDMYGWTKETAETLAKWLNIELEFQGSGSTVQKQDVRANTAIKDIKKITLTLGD

Streptococcus pneumoniae [3] = assay: Antimicrobial activity against penicillin-sensitive Streptococcus pneumoniae 1077 by CLSI method; format: functional
[4] = biological target: T2, Penicillin-binding protein 2x; assay: Displacement of Biocillin FL from Streptococcus pneumoniae 2527 PBP2X
[5] = biological target: T3, Penicillin-binding protein 1A (Streptococcus pneumoniae serotype 4 (strain ATCC BAA-334 / TIGR4), UniProt Q04707); assay: Displacement of Biocillin FL from Streptococcus pneumoniae 1077 PBP1A
T3 sequence (Q04707 whole entry): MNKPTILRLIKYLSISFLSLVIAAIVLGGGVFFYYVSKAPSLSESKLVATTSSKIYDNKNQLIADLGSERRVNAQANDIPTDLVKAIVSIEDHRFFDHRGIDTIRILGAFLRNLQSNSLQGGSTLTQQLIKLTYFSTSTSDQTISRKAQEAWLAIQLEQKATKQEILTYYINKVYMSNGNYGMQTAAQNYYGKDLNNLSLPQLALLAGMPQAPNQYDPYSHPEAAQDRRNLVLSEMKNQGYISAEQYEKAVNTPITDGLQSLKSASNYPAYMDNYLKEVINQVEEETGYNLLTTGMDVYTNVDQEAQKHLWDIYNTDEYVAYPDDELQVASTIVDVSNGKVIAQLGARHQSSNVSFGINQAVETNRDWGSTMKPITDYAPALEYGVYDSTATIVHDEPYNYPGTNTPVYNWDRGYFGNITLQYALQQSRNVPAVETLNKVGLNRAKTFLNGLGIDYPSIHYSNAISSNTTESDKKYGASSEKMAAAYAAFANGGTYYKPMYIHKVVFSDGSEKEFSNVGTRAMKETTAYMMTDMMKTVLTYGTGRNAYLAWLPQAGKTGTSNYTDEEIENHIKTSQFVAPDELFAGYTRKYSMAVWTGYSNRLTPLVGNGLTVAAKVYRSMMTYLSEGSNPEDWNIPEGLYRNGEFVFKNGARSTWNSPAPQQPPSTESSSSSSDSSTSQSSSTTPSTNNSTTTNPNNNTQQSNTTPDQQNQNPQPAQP

[6] = biological target: T3, Penicillin-binding protein 1A; assay: Displacement of Biocillin FL from Streptococcus pneumoniae 3665 PBP1A
Streptococcus pneumoniae [7] = assay: Antimicrobial activity against penicillin-intermediate Streptococcus pneumoniae 3665 by CLSI method; format: functional
[8] = biological target: T2, Penicillin-binding protein 2x; assay: Displacement of Biocillin FL from Streptococcus pneumoniae 3676 PBP2X
[9] = Displacement of Biocillin FL from Streptococcus pneumoniae 3243 PBP1B
[10] = biological target: T1, Penicillin-binding protein 2B; assay: Displacement of Biocillin FL from Streptococcus pneumoniae 1076 PBP2B
[11] = Displacement of Biocillin FL from Streptococcus pneumoniae 1077 PBP3
[12] = Displacement of Biocillin FL from Streptococcus pneumoniae 2527 PBP3
[13] = Displacement of Biocillin FL from Streptococcus pneumoniae 24 PBP3
[14] = biological target: T1, Penicillin-binding protein 2B; assay: Displacement of Biocillin FL from Streptococcus pneumoniae 3676 PBP2B
[15] = biological target: T2, Penicillin-binding protein 2x; assay: Displacement of Biocillin FL from Streptococcus pneumoniae 3413 PBP2X
[16] = Displacement of Biocillin FL from Streptococcus pneumoniae 2527 PBP1B
[17] = biological target: T3, Penicillin-binding protein 1A; assay: Displacement of Biocillin FL from Streptococcus pneumoniae 24 PBP1A
[18] = Displacement of Biocillin FL from Streptococcus pneumoniae 1076 PBP1B
[19] = Displacement of Biocillin FL from Streptococcus pneumoniae 3009 PBP2A
[20] = Displacement of Biocillin FL from Streptococcus pneumoniae 3676 PBP2A
Streptococcus pneumoniae [21] = assay: Antimicrobial activity against penicillin-resistant Streptococcus pneumoniae 2527 by CLSI method; format: functional

Row | SMILES | pIC50 [1] | pIC50 [2] | MIC (Streptococcus pneumoniae [3]) [µg/mL] | pIC50 [4] | pIC50 [5] | pIC50 [6] | MIC (Streptococcus pneumoniae [7]) [µg/mL] | pIC50 [8] | IC50 [9] [µg/mL] | pIC50 [10] | IC50 [11] [µg/mL] | IC50 [12] [µg/mL] | IC50 [13] [µg/mL] | pIC50 [14] | pIC50 [15] | IC50 [16] [µg/mL] | pIC50 [17] | IC50 [18] [µg/mL] | IC50 [19] [µg/mL] | IC50 [20] [µg/mL] | further results
1 | C[C@@H](O)[C@H]1C(=O)N2C(C(=O)O)=C([C@H]3CCCO3)S[C@H]12 [FAROPENEM] | 6.30 | 6.16 | 0.03 (≈ 0.105 µM) | 6.94 | 7.28 | 6.98 | 0.125 (≈ 0.438 µM) | 7.22 | 0.001 (≈ 0.0035 µM) | 7.34 | 0.006 (≈ 0.021 µM) | 0.007 (≈ 0.0245 µM) | 0.015 (≈ 0.0526 µM) | 6.82 | 5.82 | 0.002 (≈ 0.00701 µM) | 7.50 | 0.002 (≈ 0.00701 µM) | 0.016 (≈ 0.0561 µM) | 0.053 (≈ 0.186 µM) | MIC (Streptococcus pneumoniae [21]): 1 µg/mL (≈ 3.5 µM)
2 | C[C@@H](O)[C@H]1C(=O)N2C(C(=O)O)=C(SCCNC=N)C[C@H]12 [IMIPENEM ANHYDROUS] | 5.54 | 6.22 | 0.008 (≈ 0.0267 µM) | 7.22 | 6.76 | 6.02 | 0.03 (≈ 0.1 µM) | 6.89 | 0.108 (≈ 0.361 µM) | 6.62 | 0.219 (≈ 0.732 µM) | 0.034 (≈ 0.114 µM) | 0.2 (≈ 0.668 µM) | 5.88 | 5.84 | 0.023 (≈ 0.0768 µM) | 5.83 | 0.031 (≈ 0.104 µM) | 0.054 (≈ 0.18 µM) | 0.115 (≈ 0.384 µM) | MIC (Streptococcus pneumoniae [21]): 0.25 µg/mL (≈ 0.835 µM)
3 | CC1(C)S[C@@H]2[C@H](NC(=O)Cc3ccccc3)C(=O)N2[C@H]1C(=O)O [PENICILLIN G] | 6.27 | 7.62 | 0.03 (≈ 0.0897 µM) | 7.57 | 7.57 | 7.03 | 0.125 (≈ 0.374 µM) | 7.08 | 0.01 (≈ 0.0299 µM) | 6.75 | 0.01 (≈ 0.0299 µM) | 0.014 (≈ 0.0419 µM) | 0.004 (≈ 0.012 µM) | 6.10 | 5.72 | 0.009 (≈ 0.0269 µM) | 7.62 | 0.007 (≈ 0.0209 µM) | 0.011 (≈ 0.0329 µM) | 0.013 (≈ 0.0389 µM) | MIC (Streptococcus pneumoniae [21]): 2 µg/mL (≈ 5.98 µM)
4 | CC1(C)S[C@@H]2[C@H](NC(=O)[C@H](N)c3ccc(O)cc3)C(=O)N2[C@H]1C(=O)O [AMOXICILLIN] | 6.35 | 7.22 | 0.016 (≈ 0.0438 µM) | 7.96 | 7.33 | 6.74 | 0.125 (≈ 0.342 µM) | 6.93 | 0.165 (≈ 0.452 µM) | 6.82 | 0.022 (≈ 0.0602 µM) | 0.022 (≈ 0.0602 µM) | 0.049 (≈ 0.134 µM) | 6.40 | 6.77 | 0.029 (≈ 0.0794 µM) | 7.96 | 0.068 (≈ 0.186 µM) | 0.08 (≈ 0.219 µM) | 0.066 (≈ 0.181 µM) | MIC (Streptococcus pneumoniae [21]): 1 µg/mL (≈ 2.74 µM)
5 | CO/N=C(\C(=O)N[C@@H]1C(=O)N2C(C(=O)O)=C(COC(N)=O)CS[C@H]12)c1ccco1 [CEFUROXIME] | 8.93 | 7.85 | 0.03 (≈ 0.0707 µM) | 8.15 | 6.41 | 8.33 | 0.125 (≈ 0.295 µM) | 7.33 | 0.075 (≈ 0.177 µM) | 6.39 | 0.071 (≈ 0.167 µM) | 0.038 (≈ 0.0895 µM) | 0.002 (≈ 0.00471 µM) | 5.95 | 8.03 | 0.028 (≈ 0.066 µM) | 8.03 | 0.008 (≈ 0.0189 µM) | 0.008 (≈ 0.0189 µM) | 0.011 (≈ 0.0259 µM) | MIC (Streptococcus pneumoniae [21]): 8 µg/mL (≈ 18.9 µM)

Reference: ChEMBL document CHEMBL1649182, “Binding of faropenem and other beta-lactam agents to penicillin-binding proteins of pneumococci with various beta-lactam susceptibilities” (Antimicrob Agents Chemother, 2009)
